Results published in patent publication US10611741B2, “Substituted benzoxazine and related compounds” (THE J. DAVID GLADSTONE INSTITUTES, A TESTAMENTARY TRUST …, priority 2014, dated 2020).

Tests used:
[1] = tested on: Rat neurons; assay: Neuron autophagy assay (flux LC3 assay, conversion of photoconvertible reporter); type: cell-based; conditions: tested at 5, 10, 50, 200, 500, 1000 nM, overnight treatment, read-out: concentration at which active (neuronal autophagy induction)
Experimental: The induction of neuronal autophagy herein was measured by the conversion of photoconvertible reporter in a flux LC3 assay, as described in Tsvetkov et al., Nature Chemical Biology, 9:586-592 (2013), which is incorporated herein by reference.
mApple, kindly provided by Kurt Thorn of the Nikon microscopy core at UCSFR, was cloned into the pGW1 vector. pGW1-GFP and pGW1-Htt^exl-Q97-GFP were transfected according to normal protocols.
Cell cultures included striata, cortices, and hippocampi from rat embryos or newborn (postnatal day 0) mice were dissected, dissociated, and plated on 96-well tissue culture plates coated with poly-D-lysine and laminin. Cells were cultured for 4 days in neurobasal medium with L-glutamine and B-27 before use.
Rat neurons were transfected with plasmids using lipofectamine, treated overnight with vehicle (DMSO) or 5, 10, 50, 200, 500, and 1000 nM of exemplifying compounds and imaged everyday, once a day, for 7 days. […] Kolmogrov-Smirnov statistics test was used to calculate P values.

[2] = tested on: primary neurons transfected with exon 1 of mHtt protein containing 97 poly-glutamines; assay: Neuronal death assay (primary rodent neuron cellular model of HD, survival by robotic microscopy); type: cell-based; conditions: for protecting neurons from mHtt toxicity: in words
Experimental: The compounds were tested in a primary rodent neuron cellular model of HD. In this disease model, neurons from the striatum, the site of severe pathology in HD, are transfected with full-length or N-terminal fragments of wild-type Htt or mHtt. The model recapitulates cellular and molecular features seen in HD, including mHtt-dependent neurodegeneration. To use the model in drug discovery, striatal neurons are co-transfected with fluorescently tagged mHtt and marker proteins and examined longitudinally using an automated fluorescent microscopy system (U.S. Pat. No. 7,139,415, incorporated by reference in its entirety). Neurons that express mHtt are periodically imaged, and the loss of fluorescence of the marker protein corresponds to cell death. Importantly, the automated system monitors how mHtt affects neuronal survival by following single cells longitudinally, distinguishing transfected neurons from non-transfected cells. Neurodegeneration is quantified by the difference in survival time between neuronal cells expressing mHtt and neuronal cells expressing wild-type Htt; drugs that increase neuronal survival in neurons expressing mHtt are neuroprotective. Hazard functions are determined by Cox proportional hazards (CPH) analysis to create hazard ratios that are the estimated instantaneous risk of death of individual cells, independent of population size.
Exemplifying compounds were tested for protecting neurons from mHtt toxicity. For this survival assay, primary neurons were transfected with a construct expressing exon 1 of mHtt protein containing 97 poly-glutamines and a fluorescent reporter to track the neurons. Neurons were imaged for 7 days using automated fluorescent robotic microscopy and analyzed for survival. Fluphenazine (Compound N) at 100 nM was used as positive control. DMSO was used as negative control.

[3] = Table 3, dose 200 nM, mHtt neurons, imaged 7 days
[4] = Table 4, dose 50 nM, mHtt neurons, imaged 7 days
[5] = Table 5, dose 10 nM, mHtt neurons, imaged 7 days

SMILES | minimal effective concentration [1] | protecting neurons from mHtt toxicity [2] | Hazard Ratio [2, 4] | other results
Cc1ccc2c(c1)N(C(=O)CCN1CCN(C)CC1)CCO2 [A, 1-(6-methyl-2,3-dihydro-4H-benzo[b][1,4]oxazin-4-yl)-3-(4-methylpiperazin-1-yl)propan-1-one] | < 0.05 µM | – | – | –
Cc1ccc2c(c1)N(C(=O)CN1CCN(C)CC1)CCO2 [B, 1-(6-methyl-2,3-dihydro-4H-benzo[b][1,4]oxazin-4-yl)-2-(4-methylpiperazin-1-yl)ethan-1-one] | < 0.05 µM | – | – | –
Cc1ccc2c(c1)N(CCCN1CCN(C)CC1)CCO2 [C, 6-methyl-4-(3-(4-methylpiperazin-1-yl)propyl)-3,4-dihydro-2H-benzo[b][1,4]oxazine] | < 0.05 µM | – | – | –
Cc1ccc2c(c1)N(CCN1CCN(C)CC1)CCO2 [Compound D, 6-methyl-4-(2-(4-methylpiperazin-1-yl)ethyl)-3,4-dihydro-2H-benzo[b][1,4]oxazine] | < 0.05 µM | active at nM concentrations | – | Hazard Ratio ([2]; Table 3, dose 10 nM, mHtt neurons, imaged 7 days): 0.9161
Cc1ccc2c(c1)N(C(=O)CN1CCN(c3ccccc3)CC1)CCO2 [Compound K, 1-(6-methyl-2,3-dihydro-4H-benzo[b][1,4]oxazin-4-yl)-2-(4-phenylpiperazin-1-yl)ethan-1-one] | – | active at nM concentrations | – | Hazard Ratio [2, 3]: 0.9209
OCCN1CCN(CCCN2c3ccccc3Sc3ccc(C(F)(F)F)cc32)CC1 [Compound N, 2-(4-(3-(2-(trifluoromethyl)-10H-phenothiazin-10-yl)propyl)piperazin-1-yl)ethan-1-ol, reference compound] | – | – | – | Hazard Ratio ([2]; Table 3, dose 100 nM, positive control): 0.8553; Hazard Ratio ([2]; Table 4, dose 100 nM, positive control): 0.7018; Hazard Ratio ([2]; Table 5, dose 100 nM, positive control): 0.5273
Cc1ccc2c(c1)N(CC(=O)N1CCN(CCNS(C)(=O)=O)CC1)CCO2 [Compound S, N-[2-[4-[2-(6-methyl-2,3-dihydro-1,4-benzoxazin-4-yl)acetyl]piperazin-1-yl]ethyl]methanesulfonamide] | – | active at nM concentrations | 0.6953 | –
Cc1ccc2c(c1)N(CC(=O)N1CCN(C)CC1)CCO2 [E, 2-(6-methyl-2,3-dihydro-4H-benzo[b][1,4]oxazin-4-yl)-1-(4-methylpiperazin-1-yl)ethan-1-one] | < 0.05 µM | active at nM concentrations | – | Hazard Ratio ([2]; Table 3, dose 50 nM, mHtt neurons, imaged 7 days): 0.8952
Cc1ccc2c(c1)N(CCC(=O)N1CCN(C)CC1)CCO2 [F, 3-(6-methyl-2,3-dihydro-4H-benzo[b][1,4]oxazin-4-yl)-1-(4-methylpiperazin-1-yl)propan-1-one] | < 0.05 µM | – | – | –
Cc1ccc2c(c1)N(CCN1CCN(C)CC1)C(=O)CO2 [G, 6-methyl-4-(2-(4-methylpiperazin-1-yl)ethyl)-2H-benzo[b][1,4]oxazin-3(4H)-one] | < 0.05 µM | – | – | –
Cc1ccc2c(c1)N(CC(=O)N1CCN(C)CC1)C(=O)CO2 [I, 6-methyl-4-(2-(4-methylpiperazin-1-yl)-2-oxoethyl)-2H-benzo[b][1,4]oxazin-3(4H)-one] | < 0.05 µM | – | – | –
Cc1ccc2c(c1)N(C(=O)CC1CCN(C)CC1)CCO2 [L, 1-(6-methyl-2,3-dihydro-4H-benzo[b][1,4]oxazin-4-yl)-2-(1-methylpiperidin-4-yl)ethan-1-one] | – | active at nM concentrations | – | Hazard Ratio [2, 3]: 0.9143
Cc1ccc2c(c1)N(C(=O)CN1CCN(C3CCCCC3)CC1)CCO2 [O, 2-(4-cyclohexylpiperazin-1-yl)-1-(6-methyl-2,3-dihydro-1,4-benzoxazin-4-yl)ethanone] | – | active at nM concentrations | 0.5747 | –
Cc1ccc2c(c1)N(C(=O)CN1CCN(C(C)C)CC1)CCO2 [P, 1-(6-methyl-2,3-dihydro-1,4-benzoxazin-4-yl)-2-(4-propan-2-ylpiperazin-1-yl)ethanone] | – | active at nM concentrations | 0.7384 | Hazard Ratio [2, 5]: 0.6275
Cc1ccc2c(c1)N(CC(=O)N1CCN(CCO)CC1)CCO2 [Q, 1-[4-(2-hydroxyethyl)piperazin-1-yl]-2-(6-methyl-2,3-dihydro-1,4-benzoxazin-4-yl)ethanone] | – | active at nM concentrations | 0.5709 | Hazard Ratio [2, 5]: 0.558
COCCN1CCN(C(=O)CN2CCOc3ccc(C)cc32)CC1 [R, 1-[4-(2-methoxyethyl)piperazin-1-yl]-2-(6-methyl-2,3-dihydro-1,4-benzoxazin-4-yl)ethanone] | – | active at nM concentrations | 0.7345 | Hazard Ratio [2, 5]: 0.7036
